Assay results as given in patent US10947251B2, “Therapeutic compounds and methods of use thereof” (GENENTECH, INC., priority 2018, dated 2021).

Experiments:
[1] = target: T1, hNav1.7 (Homo sapiens (Human), UniProt Q15858); test: Tritiated compound binding to membranes from cells heterologously expressing hNav1.7 and the β1 subunit (LBA); conditions: competitive binding vs [3H]compound, membranes with hNav1.7 and β1 subunit; read-out: Nav1.7 LBA EVO IC50
Procedure: Example 39A. Tritiated Compound Binding to Membranes Isolated from Cells that Heterologously Express hNav1.7 and the β1 Subunit
Preparation of membranes containing recombinantly expressed sodium channels: Frozen recombinant cell pellets were thawed on ice and diluted to 4 times the cell pellet weight with ice cold 50 mM Tris HCl, pH 7.4 buffer. The cell suspensions were homogenized on ice using a motorized glass dounce homogeniser. Homogenates were further diluted 8.4 times with ice cold 50 mM Tris HCl, pH 7.4 buffer and then centrifuged at 200×g at 4° C. for 15 min. The supernatants were collected and centrifuged at 10000×g at 4° C. for 50 min. The pellets were then re-suspended in 100 mM NaCl, 20 mM Tris HCl, pH 7.4 buffer containing 1% v/v protease inhibitors (Calbiochem) and re-homogenized on ice. The homogenized membranes were then processed through a syringe equipped with a 26 gauge needle. Protein concentrations were determined by Bradford Assay and the membranes were stored at −80° C.
Saturation experiments. A competitive NaV1.7 inhibitor having a methyl group was tritiated. Three tritiums were incorporated in place of methyl hydrogens to generate [^3H]compound. Binding of this radioligand was performed in 5 mL borosilicate glass test tubes at room temperature. Binding was initiated by adding membranes to increasing concentrations of [^3H]compound in 100 mM NaCl, 20 mM Tris HCl, pH 7.4 buffer containing 0.01% w/v bovine serum albumin (BSA) for 18 h. Non-specific binding was determined in the presence of 1 μM unlabeled compound. After 18 h, the reactants were filtered through GF/C glass fiber filters presoaked in 0.5% w/v polyethylene imine. Filters were washed with 15 mL ice cold 100 mM NaCl, 20 mM Tris HCl, pH7.4 buffer containing 0.25% BSA to separate bound from free ligand. [^3H]compound bound to filters was quantified by liquid scintillation counting.
Binding reactions were performed in 96-well polypropylene plates at room temperature for 18 h. In 360 μL, membranes were incubated with 100 pM [^3H]compound and increasing concentrations of Test Compound. Non-specific binding was defined in the presence of 1 μM unlabeled compound. Reactions were transferred and filtered through 96-well glass fiber/C filter plates presoaked with 0.5% polyethylene imine. The filtered reactions were washed 5 times with 200 μL ice cold buffer containing 0.25% BSA. Bound radioactivity was determined by liquid scintillation counting.
For saturation experiments, non-specific binding was subtracted from total binding to provide specific binding and these values were recalculated in terms of pmol ligand bound per mg protein. Saturation curves were constructed and dissociation constants were calculated using the single site ligand binding model: Beq=(Bmax*X)/(X+Kd), where Beq is the amount of ligand bound at equilibrium, Bmax is the maximum receptor density, Kd is the dissociation constant for the ligand, and X is the free ligand concentration. For competition studies percent inhibition was determined and IC50 values were calculated using a 4 parameter logistic model (% inhibition=(A+((B−A)/(1+((x/C)^D)))) using XLfit, where A and B are the maximal and minimum inhibition respectively, C is the IC50 concentration and D is the (Hill) slope.
Example 39B. Tritiated Compound Binding to Membranes Isolated from Cells that Heterologous Express hNav1.7 and the β1 Subunit
Following the procedure described in Example 39A, and making modifications as required to: centrifuge supernatants at 100000×g instead of 10000×g; re-suspend pellets in a buffer containing 0.01% BSA in addition to 100 mM NaCl, 20 mM Tris HCl, pH 7.4 buffer, and 1% v/v […]; and storing membranes at −80° C. in single use aliquots instead of pooled.
Saturation experiments: Following the procedure described in Example 243A, and making modifications as required to incubate [3H]compound for 3 hours instead of 18 hours. […]

[2] = target: T1, hNav1.7; test: Electrophysiological assay (EP), voltage clamp on Syncropatch 384PE; type: cell-based; conditions: CHO cells expressing Nav1.7, holding potential −50 mV, 7.5 min compound incubation; read-out: EP_SP hNav1.7 EVO IC50
Description: Example 39C. Electrophysiological Assay (EP) (In Vitro Assay)
Patch voltage clamp electrophysiology allows for the direct measurement and quantification of block of voltage-gated sodium channels (NaV's), and allows the determination of the time- and voltage-dependence of block which has been interpreted as differential binding to the resting, open, and inactivated states of the sodium channel (Hille, B., Journal of General Physiology (1977), 69: 497-515).
The following voltage clamp electrophysiology studies were performed on representative compounds using cells heterologously expressing Nav1.7 or Nav1.5 channels. cDNAs for Nav1.7 (NM_002977) and Nav1.5 (AC137587) were stably expressed in Chinese Hamstr Ovary (CHO) cells and CHL (Chinese Hamster Lung) cells respectively. Sodium currents were measured in the whole-cell configuration using Syncropatch 384PE (Nanlon Technologies, Germany). 1NPC®-384 chips with custom medium resistance and single hole mode are used. Internal solution consists of (in mM): 110 […], 10 CsCl, 20 EGTA, and 10 Hepes (pH adjusted to 7.2); and external solution contains (in mM): 60 NMDG, 80 NaCl, 4 KCl, 1 MgCl2, 2 CaCl2, 2 D-Glucose monohydrate, 10 Hepes (pH adjusted to 7.4 with NaOH).
After system flushing, testing compounds are dissolved in external solution containing 0.1% Pluronic F-127. The chip is moved into the measuring head and the instrument primes the chip with external and internal solutions. 10 l cells are added to the chip from a cell hotel, and a negative pressure of −50 mBar is applied to form a seal. Following treatment with seal enhancer solution and wash-off with external solution, negative pressure of −250 mbar is applied for 1 second to achieve the whole-cell configuration, followed by three washing steps in external solution. 20 µl of compounds is added to 40 µl in each well (1:3 dilution of compounds), and after mixing, 20 l is removed so the volume is retained at 40 ul. After approximately 13 minutes recordings, 20 µl/well of 2 uM TTX, or 333 uM Tetracaine (for Nav1.5) is added to achieve full block.
For voltage protocol, an holding potential of −50 mV is applied during the whole experiment. A depolarizing step is applied to −10 mV for 10 ms, followed by a hyperpolarization step to −150 mV for 20 ms to allow channel recovery from inactivation. A second depolarizing step is applied from −150 mV to −10 mV for 10 ms, where currents were measured to derive blocking effects of compounds. Inhibition is determined based on 7.5 min of compound incubation.

SMILES | IC50 [1] [µM] | IC50 [2] [µM]
COc1nc(-c2cccc(C(F)(F)F)c2)c(F)cc1N1C(=O)CO[C@@H]2CN(S(=O)(=O)Nc3ccon3)CC[C@H]21 [Example 21, (4aR,8aR)-1-(5-fluoro-2-methoxy-6-(3-(trifluoromethyl)phenyl)pyridin-3-yl)-N-(isoxazol-3-yl)-2-oxohexahydro-1H-pyrido[3,4-b][1,4]oxazine-6(7H)-sulfonamide] | 2 | 0.0475
COc1nc(-c2cccc(C(F)(F)F)c2)c(F)cc1N1C(=O)CO[C@H]2CN(S(=O)(=O)Nc3ccon3)CC[C@@H]21 [Example 22, (4aS,8aS)-1-(5-fluoro-2-methoxy-6-(3-(trifluoromethyl)phenyl)pyridin-3-yl)-N-(isoxazol-3-yl)-2-oxohexahydro-1H-pyrido[3,4-b][1,4]oxazine-6(7H)-sulfonamide] | 0.907 | 0.0668
N#Cc1cc(-c2cccc(C(F)(F)F)c2)c(F)cc1N1C(=O)CO[C@@H]2CN(S(=O)(=O)Nc3ccon3)CC[C@H]21 [Example 23, (4aR,8aR)-1-(5-cyano-2-fluoro-3′-(trifluoromethyl)-[1,1′-biphenyl]-4-yl)-N-(isoxazol-3-yl)-2-oxohexahydro-1H-pyrido[3,4-b][1,4]oxazine-6(7H)-sulfonamide] | 2 | 0.0501
N#Cc1cc(-c2cccc(C(F)(F)F)c2)c(F)cc1N1C(=O)CO[C@H]2CN(S(=O)(=O)Nc3ccon3)CC[C@@H]21 [Example 24, (4aS,8aS)-1-(5-cyano-2-fluoro-3′-(trifluoromethyl)-[1,1′-biphenyl]-4-yl)-N-(isoxazol-3-yl)-2-oxohexahydro-1H-pyrido[3,4-b][1,4]oxazine-6(7H)-sulfonamide] | 2 | 0.237
COc1cc(-c2cccc(C(F)(F)F)c2)c(F)cc1N1CCO[C@@H]2CN(S(=O)(=O)Nc3ccon3)CC[C@H]21 [Example 25, (4aR,8aR)-1-(2-fluoro-5-methoxy-3′-(trifluoromethyl)-[1,1′-biphenyl]-4-yl)-N-(isoxazol-3-yl)hexahydro-1H-pyrido[3,4-b][1,4]oxazine-6(7H)-sulfonamide] | 0.208 | 0.00236
COc1cc(-c2cccc(C(F)(F)F)c2)c(F)cc1N1CCO[C@H]2CN(S(=O)(=O)Nc3ccon3)CC[C@@H]21 [Example 26, (4aS,8aS)-1-(2-fluoro-5-methoxy-3′-(trifluoromethyl)-[1,1′-biphenyl]-4-yl)-N-(isoxazol-3-yl)hexahydro-1H-pyrido[3,4-b][1,4]oxazine-6(7H)-sulfonamide] | 0.0636 | 0.0106
COc1cc(-c2cccc(C(F)(F)F)c2)c(F)cc1N1CCO[C@@H]2CN(S(=O)(=O)Nc3ccncn3)CC[C@H]21 [Example 27, (4aR,8aR)-1-(2-fluoro-5-methoxy-3′-(trifluoromethyl)-[1,1′-biphenyl]-4-yl)-N-(pyrimidin-4-yl)hexahydro-1H-pyrido[3,4-b][1,4]oxazine-6(7H)-sulfonamide] | 0.0212 | 0.00202
COc1cc(-c2cccc(C(F)(F)F)c2)c(F)cc1N1CCO[C@H]2CN(S(=O)(=O)Nc3ccncn3)CC[C@@H]21 [Example 28, (4aS,8aS)-1-(2-fluoro-5-methoxy-3′-(trifluoromethyl)-[1,1′-biphenyl]-4-yl)-N-(pyrimidin-4-yl)hexahydro-1H-pyrido[3,4-b][1,4]oxazine-6(7H)-sulfonamide] | 0.0263 | 0.0021
COc1cc(-c2cccc(OC(F)(F)F)c2)c(F)cc1N1C(=O)CO[C@@H]2CN(S(=O)(=O)Nc3ccon3)CC[C@H]21 [Example 29, (4aR,8aR)-1-(2-fluoro-5-methoxy-3′-(trifluoromethoxy)-[1,1′-biphenyl]-4-yl)-N-(isoxazol-3-yl)-2-oxohexahydro-1H-pyrido[3,4-b][1,4]oxazine-6(7H)-sulfonamide] | 0.0623 | 0.00221
COc1cc(-c2cccc(OC(F)(F)F)c2)c(F)cc1N1C(=O)CO[C@H]2CN(S(=O)(=O)Nc3ccon3)CC[C@@H]21 [Example 30, (4aS,8aS)-1-(2-fluoro-5-methoxy-3′-(trifluoromethoxy)-[1,1′-biphenyl]-4-yl)-N-(isoxazol-3-yl)-2-oxohexahydro-H-pyrido[3,4-b][1,4]oxazine-6(7H)-sulfonamide] | 0.0356 | 0.00235
COc1cc(-c2cccc(OC(F)(F)F)c2)c(F)cc1N1CCO[C@@H]2CN(S(=O)(=O)Nc3ccon3)CC[C@H]21 [Example 31, (4aR,8aR)-1-(2-fluoro-5-methoxy-3′-(trifluoromethoxy)-[1,1′-biphenyl]-4-yl)-N-(isoxazol-3-yl)hexahydro-H-pyrido[3,4-b][1,4]oxazine-6(7H)-sulfonamide] | 0.128 | 0.00598
COc1cc(-c2cccc(OC(F)(F)F)c2)c(F)cc1N1CCO[C@H]2CN(S(=O)(=O)Nc3ccon3)CC[C@@H]21 [Example 32, (4aS,8aS)-1-(2-fluoro-5-methoxy-3′-(trifluoromethoxy)-[1,1′-biphenyl]-4-yl)-N-(isoxazol-3-yl)hexahydro-1H-pyrido[3,4-b][1,4]oxazine-6(7H)-sulfonamide] | 0.148 | 0.0109
COc1cc(-c2cccc(C(F)(F)F)c2)c(F)cc1N1C(=O)OC[C@@H]2CN(S(=O)(=O)Nc3ccon3)CC[C@H]21 [Example 33, (4aR,8aR)-1-(2-fluoro-5-methoxy-3′-(trifluoromethyl)-[1,1′-biphenyl]-4-yl)-N-(isoxazol-3-yl)-2-oxohexahydro-2H-pyrido[4,3-d][1,3]oxazine-6(4H)-sulfonamide] | 0.112 | 0.0104
